The source of these data is patent publication US20250034186A1, “ANTIVIRAL COMPOUNDS” (priority 2020, published 2025).

Where only a bound is given, the exact number is not on record here.

For one data set, the system named is HRV14. As to the kind of experiment: HRV14 HeLa EC50. Type of data set: cell-based, human rhinovirus. The note with it: for EC50: Human rhinovirus sp., HRV14, H1-HeLa cells, 96 h, 37° C. As for the experimental part:
H1-HeLa cells, cultured in complete RPMI 1640 medium containing 10% heat-inactivated FBS and 1% Penicillin/Streptomycin, were seeded in 96 well plates at 5000 cells/well one day prior to compound dosing and infection. The antiviral activity of each compound was measured in triplicate. Compounds were added directly to the cell cultures in serial 3-fold dilutions using the HP300 digital dispenser (Hewlett Packard, Palo Alto, CA) immediately prior to infection. The plates were transferred to BSL-2 containment and 100 μL of 1/4000 dilution of HRV14 virus stock was added to each well containing cells and serially diluted compounds. Each plate included 6 wells of infected untreated cells and 6 wells of cells containing 5 μM Rupintrivir that served as 0% and 100% virus inhibition control, respectively. Following the infection, test plates were incubated for 96 h in a tissue culture incubator set to 37° C./5% CO2. Following incubation, the H1-HeLa cells were removed from incubation and allowed to equilibrate to 25° C. Cell viability was determined by removing 100 μL of culture medium and adding 100 μL of Cell-Titer Glo viability reagent. The mixtures were incubated on a shaker for 10 minutes at 25° C., and the luminescence signal was quantified on an Envision luminescence plate reader.

A further data set can be described thus: HEp-2 cytotoxicity assay. Type of data set: cell-based. The note with it: human, HEp-2 cells (uninfected), 4-5 days. As to the method:
Cytotoxicity of the compound of Formula I and compounds 1, 2, and 6 was determined in uninfected cells using the cell viability reagent in a similar fashion as described before for other cell types (Cihlar et al., Antimicrob Agents Chemother. 2008, 52(2):655-65.). HEp-2 (1.5×10^3 cells/well) and MT-4 (2×10^3 cells/well) cells were plated in 384-well plates and incubated with the appropriate medium containing 3-fold serially diluted compound ranging from 15 nM to 100,000 nM. Cells were cultured for 4-5 days at 37° C. Following the incubation, the cells were allowed to equilibrate to 25° C., and cell viability was determined by adding Cell-Titer Glo viability reagent. The mixture was incubated for 10 min, and the luminescence signal was quantified using an Envision plate reader. Untreated cell and cells treated at 2 μM puromycin (Sigma, St. Louis, MO) serve as 100% and 0% cell viability control, respectively.

Another data set can be described thus: MRC5 cytotoxicity assay. The data set is classed as cell-based. The settings on record: human, MRC5 cells. As for the experimental part:
Compounds were tested in a high-throughput 384-well assay format for cytotoxicity in MRC5 cells (human fetal lung fibroblast cell line). Cells were diluted in media (MEM (10-010-CM), 10% FBS, 1% PSG) to 16.6K cells/mL and plated at 90 uL/well into 384 well poly-D-lysine coated assay plates and placed in an incubator at 37° C. and 5% CO2. Compounds were serially diluted (1:3) in 100% DMSO in 384-well plates in quadruplicate. DMSO and 2 mM Puromycin were included as negative and positive controls respectively. 24 hours after cell plating, a 384 channel pipettor was used to transfer 0.4 uL from the compound plate to the assay plate. Assay plates were returned to the incubator. After 5 days, assay plates were washed with 80 uL/well of PBS before addition of 20 μL of Cell Titer Glo. Assay plates were read on the Envision plate reader. […] CC50 values were calculated in Accord (on-line tool) using a one-site dose-response model to generate sigmoidal curve fits.

Data set [1] is described as follows: Stability assay in human hepatic S9 fractions. The note with it: 37° C., NADPH and UDPGA, read-out: Hum HepS9 t1/2. The data set is classed as in vitro ADME. As for the experimental part:
For S9 stability, the compounds were incubated at 2 μM in cynomolgus monkey or human hepatic S9 fractions for up to 90 min at 37° C. in the presence of NADPH and UDPGA (Phase I and Phase II cofactor, Sigma-Aldrich). At desired time points following compound addition, samples were quenched with 9 volumes of an aqueous solution containing internal standard, 50% acetonitrile and 25% methanol. Sample plates were centrifuged at 3000 g for 30 min, and 10 μL of the resulting solution was analyzed by LC-MS/MS. Data (analyte to internal standard peak area ratio) were plotted on a semi log scale and fitted using an exponential fit. The half-life (T1/2) was determined assuming first order kinetics.

For orientation: EC50 means the concentration at which the effect is half-maximal. High values mean lower potency in that assay, low ones higher potency in that assay. What is called CC50 is the concentration that lowers cell viability or growth by half. High values mean lower toxicity to the cells, low ones greater toxicity to the cells. As for `CCOC(=O)[C@H](C)NP(=O)(OC[C@@]1(C#N)O[C@@H](c2ccc3c(N)ncnn23)[C@H](O)[C@@H]1O)Oc1ccccc1` (stereo partly shown) [Compound 1, reference compound], the response with HRV14 was half-maximal at 1 µM (EC50). Further, the CC50 in the data set “HEp-2 cytotoxicity assay” was > 91.5 µM. The CC50 at 5 days in the data set “MRC5 cytotoxicity assay” is > 44.4 µM. For the same compound, the half-life at 2 μM in data set [1] is 12 min.
Taken in the same sequence, the figures for `CCC(CC)COC(=O)[C@H](C)NP(=O)(OC[C@@]1(C#N)O[C@@H](c2ccc3c(N)ncnn23)[C@H](O)[C@@H]1O)Oc1ccccc1` (stereo partly shown) [Compound 2, reference compound] were 0.171 µM, > 95.4 µM, > 44.4 µM and 12 min.
`CCC(CC)COC(=O)[C@H](C)N[P@](=O)(OC[C@@]1(C#N)O[C@@H](c2ccc3c(N)ncnn23)[C@H](O)[C@@H]1O)Oc1ccccc1` [Compound 6, 2-ethylbutyl ((S)-(((2R,3S,4R,5S)-5-(4-aminopyrrolo[2,1-f][1,2,4]triazin-7-yl)-2-cyano-3,4-dihydroxytetrahydrofuran-2-yl)methoxy)(phenoxy)phosphoryl)alaninate]: the CC50 in “HEp-2 cytotoxicity assay” is > 95 µM. Besides, the CC50 at 5 days in “MRC5 cytotoxicity assay” is > 88.4 µM. Moreover, the half-life at 2 μM in data set [1] was 7 min.
Take `C[C@H](N[P@](=O)(OC[C@@]1(C#N)O[C@@H](c2ccc3c(N)ncnn23)[C@H](O)[C@@H]1O)Oc1ccccc1)C(=O)OC1CCCCC1` [Formula I, cyclohexyl ((S)-(((2R,3S,4R,5S)-5-(4-aminopyrrolo[2,1-f][1,2,4]triazin-7-yl)-2-cyano-3,4-dihydroxytetrahydrofuran-2-yl)methoxy)(phenoxy)phosphoryl)-L-alaninate]: the “times more potent relative to compound 1, HRV14 HeLa” value in the data set on HRV14 (EC50 ratio vs compound 1) is listed as ~12.8 times. Moreover, the “times more potent compared to compound 2, HRV14 HeLa” value in the data set with HRV14 (EC50 ratio vs compound 2) was “about 2.2 times”. Further, the “times more potent relative to compound 3, HRV14 HeLa” value with HRV14 (EC50 ratio vs compound 3) was “about 23.2 times”. For the same compound, the “times more potent relative to compound 5, HRV14 HeLa” value in the data set with HRV14 (EC50 ratio vs compound 5) is listed as “about 44.0 times”. For the same compound, the 50% effective concentration (EC50) with HRV14 was found to be 0.078 µM. In addition, the CC50 in “HEp-2 cytotoxicity assay” is > 100 µM. The CC50 at 5 days in the data set “MRC5 cytotoxicity assay” was > 44.4 µM. The half-life at 2 μM in data set [1] amounted to 31 min.
